Results published in PMC2796602 (Journal of the American Chemical Society, 2009).
Where a name gives a salt, the structure may show the parent alone. One block for each molecule: values may come before it. No end group written: not given here.

Assays:
[1] = tested on: hypoxia-induced gene expression in MCF7 cells; test: Gene expression profiling with Affymetrix Human Gene ST 1.0 microarrays; type: cell-based; conditions: 300 μM DFO
mice = conditions: cited from earlier work
[2] = target: GST-tagged CH1 domain of human p300 (aa residues 323-423) (Homo sapiens, UniProt Q09472); test: SPR binding to immobilized p300-CH1-GST
HIF-1α levels in cells = test: Western blot of HIF-1α levels; type: cell-based, human; conditions: 200 nM, 300 μM DFO
[3] = target: p300-CH1-GST/HIF-1α C-TAD complex (Homo sapiens, UniProt Q09472); test: Fluorescence polarization competition assay; type: binding
MCF7 cells = test: Cell viability assay; type: cell-based; conditions: Homo sapiens, MCF7, 24 h
p300-CH1-GST fusion = p300-CH1-GST fusion (Homo sapiens, UniProt Q09472); test: CD spectroscopy of p300-CH1-GST fold; conditions: CD spectra
[4] = target: p300-CH1-GST fusion protein (GST-tagged CH1 domain of human p300, aa residues 323-423) (human, UniProt Q09472 323-423); test: fluorescence polarisation
Chain of p300-CH1-GST fusion protein (GST-tagged CH1 domain of human p300, aa residues 323-423) (Q09472 323-423): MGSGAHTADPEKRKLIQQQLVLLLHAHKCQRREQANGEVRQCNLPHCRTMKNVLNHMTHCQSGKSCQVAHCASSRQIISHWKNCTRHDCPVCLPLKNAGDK

Chain of GST-tagged CH1 domain of human p300 (aa residues 323-423) (Q09472 323-423): as above
Chain of p300-CH1-GST fusion (Q09472 323-423): as above
Chain of p300-CH1-GST/HIF-1α C-TAD complex (Q09472 323-423, one chain of several): as the sequence (Q09472 323-423) above

Molecule: CC(=O)N(O)CCCCCNC(=O)CCC(=O)N(O)CCCCCNC(=O)CCC(=O)N(O)CCCCCN [DFO, desferrioxamine mesylate]
number of transcripts affected (2-fold or more) by DFO treatment alone [1]: 580
number of transcripts induced by at least 4-fold (P < 0.01) [1]: 43

Molecule: CN1C(=O)[C@]2(Cc3cn([C@]45C[C@@]67SS[C@@](CO)(C(=O)N6[C@H]4Nc4ccccc45)N(C)C7=O)c4ccccc34)SS[C@@]1(CO)C(=O)N2C [compound 2, chetomin]
effect on vascularization in mice (mice): inhibit vascularization in mice
Kd [2]: 540 nM
off-rate (Kd) ([2]; SPR, 100 μM DTT): 0.0033 s⁻¹
levels of HIF-1α in hypoxic cells (HIF-1α levels in cells): remained constant
IC50 [3]: 540 ± 180 nM
GI50 (MCF7 cells): 180 ± 40 nM
concentration causing structural changes / unfolding of p300-CH1-GST (p300-CH1-GST fusion): 1 µM

binding result [4]: binds
B1: fluorescein-labeled C-TAD domain of human HIF-1α (residues 786-826) (peptide, UniProt Q16665 786-826, looked up)
peptide: SMDESGLPQLTSYDCEVNAPIQGSRNLLQGEELLRALDQVN
modifications: also: fluorescein label, position not given here
